Reference: patent US20050159599A1, “Cyclic compound, process for producing the same, and pest control agent” (priority 2002, published 2005)
Where two headings read alike, the source gives them in different places.

Experiments:
[1] = test system: Spodoptera litura; assay: Insecticidal effect for Spodoptera litura by spraying treatment to host crop (Test Example 2); type: in vivo; conditions: for pest or weed control at 100 ppm: 120 h, read-out: rate of dead pests (%)
Method: Insecticidal Effect for Spodoptera litura by Spraying Treatment to Host Crop
A pesticidal solution, which was prepared by dissolving 5 mg of test compound (represented by the compound Nos. in the above Examples) in 0.5-ml of acetone containing Tween 20 (trade name) and then diluting it to the prescribed concentration (100 ppm) with Dain (trade name, sticker) water diluted 5000-fold, was sprayed on a soybean whose primary leaves had developed completely with spray gun in the amounts wherein the pesticidal solution dripped. After drying the pesticidal solution, two primary leaves were cut off. The leaves were put into an ice cream cup (180 ml), and ten third-instar larvae of Spodoptera litura were set free therein. The cup was left in a temperature-controlled breeding room (25° C.). On the fifth day after, the number of surviving Spodoptera litura was examined. The rate of dead pests was calculated by the following formula. rate of dead pests (%)=(number of dead pests/number of test pests)×100

[2] = test system: Spodoptera litura; assay: Insecticidal effect for Spodoptera litura by immersion treatment of host crop root (Test Example 4); type: in vivo; conditions: 25 ppm, soybean root immersion 5 days, second-instar larvae of Spodoptera litura, fifth day after; for pest or weed control at 25 ppm: 120 h, read-out: rate of dead pests (%)
Method: Insecticidal Effect for Spodoptera litura by Immersion Treatment of Host Crop Root Roots of primary leaves developing stage soybean was washed with tap water to remove soil, and then immersed in a pesticidal solution which was prepared by dissolving 5 mg of test compound (represented by the compound Nos. in the above Examples) in 0.5 ml of acetone containing Tween 20 ([…]) with ion-exchange water, and which was filled in a light-shielded Erlenmeyer flask (100 ml). On the fifth day after immersion of root, two primary leaves were cut off, and the leaves were put into an ice cream cup (180 ml). Ten second-instar larvae of Spodoptera litura were set free therein, and the cup was left in a temperature-controlled breeding room (25° C.). On the fifth day after, the number of surviving Spodoptera litura was examined. The rate of dead pests was calculated by the following formula. rate of dead pests (%)=(number of dead pests/number of test pests)×100

[3] = 100 ppm, sprayed on soybean, third-instar larvae of Spodoptera litura, fifth day after

O=C(c1c(F)cccc1F)N1COCN(c2c(F)cc(SC(F)(F)F)cc2F)C1=O [I-104]
rate of dead pests (%) [1, 3]: 100% | rate of dead pests (%) [2]: 100%

O=C(c1c(F)cccc1F)N1COCN(c2ccc([S+]([O-])C(F)(F)F)c(Cl)c2Cl)C1=O (centres unmarked) [I-93]
rate of dead pests (%) [1, 3]: 100% | rate of dead pests (%) [2]: 100%

O=C(c1c(F)cccc1Cl)N1COCN(c2ccc([S+]([O-])C(F)(F)C(F)(F)F)cc2F)C1=O (centres unmarked) [I-306]
rate of dead pests (%) [1, 3]: 100% | rate of dead pests (%) [2]: 100%

COC(=O)C(=O)N1CN(C(=O)c2c(F)cccc2F)C(=O)N(c2ccc(Cl)cc2)C1 [III-15]
rate of dead pests (%) [2]: 95%

O=C(c1c(F)cccc1Cl)N1COCN(c2c(F)cc(SC(F)(F)F)cc2F)C1=O [I-281]
rate of dead pests (%) [1, 3]: 100% | rate of dead pests (%) [2]: 100%

CCSc1ccc(N2COCN(C(=O)c3c(F)cccc3F)C2=O)c(F)c1 [I-47]
rate of dead pests (%) [1, 3]: 100% | rate of dead pests (%) [2]: 100%

C=CCSc1ccc(N2COCN(C(=O)c3c(F)cccc3F)C2=O)c(F)c1 [I-59]
rate of dead pests (%) [1, 3]: 100% | rate of dead pests (%) [2]: 100%

O=C(c1c(F)cccc1Cl)N1COCN(c2ccc(SC(F)(F)F)cc2Cl)C1=O [I-251]
rate of dead pests (%) [2]: 90%

O=C(c1c(F)cccc1F)N1CN=CN(c2ccc(Cl)cc2)C1=O [V-1]
rate of dead pests (%) [1, 3]: 100% | rate of dead pests (%) [2]: 100%

CCCSc1ccc(N2COCN(C(=O)c3c(F)cccc3F)C2=O)c(F)c1 [I-50]
rate of dead pests (%) [2]: 100%

CC(C)Sc1ccc(N2COCN(C(=O)c3c(F)cccc3F)C2=O)c(F)c1 [I-53]
rate of dead pests (%) [1, 3]: 100% | rate of dead pests (%) [2]: 100%

O=C(c1c(F)cccc1F)N1C=NCN(c2cc(Cl)c(F)c(Cl)c2F)C1=O [IV-4, 3-(3,5-dichloro-2,4-difluorophenyl)-1-(2,6-difluorobenzoyl)-3,4-dihydro-1,3,5-triazin-2(1H)-one]
pest or weed control at 25 ppm [2]: 100%

CC(=O)N1CN(C(=O)c2c(F)cccc2F)C(=O)N(c2ccc(Cl)cc2)C1 [III-9, 5-acetyl-1-(4-chlorophenyl)-3-(2,6-difluorobenzoyl)tetrahydro-1,3,5-triazin-2(1H)-one]
pest or weed control at 25 ppm [2]: 95%

CC[S+]([O-])c1ccc(N2COCN(C(=O)c3c(F)cccc3F)C2=O)c(F)c1 (centres unmarked) [I-48]
rate of dead pests (%) [2]: 100%

C=CCN1CN(C(=O)c2c(F)cccc2F)C(=O)N(c2ccc(Cl)cc2)C1 [III-5, 5-allyl-1-(4-chlorophenyl)-3-(2,6-difluorobenzoyl)tetrahydro-1,3,5-triazin-2 (1H)-one]
pest or weed control at 100 ppm [1, 3]: 100%

O=C(c1c(F)cccc1F)N1COCN(c2ccc(SC(F)(F)F)c(Cl)c2)C1=O [I-77]
rate of dead pests (%) [1, 3]: 100%

Cc1cc(N2COCN(C(=O)c3c(F)cccc3F)C2=O)c(C)cc1SC(F)(F)F [I-86]
rate of dead pests (%) [1, 3]: 100%

O=C(c1c(F)cccc1F)N1COCN(c2ccc(SC(F)(F)F)c(F)c2F)C1=O [I-107]
rate of dead pests (%) [1, 3]: 100%

O=C(c1c(F)cccc1F)N1COCN(c2cc(F)c(SC(F)(F)F)cc2F)C1=O [I-110]
rate of dead pests (%) [1, 3]: 100%

O=C(c1c(F)cccc1F)N1COCN(c2ccc(SC(F)(F)C(F)(F)C(F)(F)F)cc2F)C1=O [I-143, 3-(2,6-difluorobenzoyl)-5-[2-fluoro-4-(1,1,2,2,3,3,3-heptafluoro-1-propylthio)phenyl]tetrahydro-4H-1,3,5-oxadiazin-4-one]
pest or weed control at 100 ppm ([1]; Spodoptera litura, in Glycine max): 100%

O=C(c1c(Cl)cccc1Cl)N1COCN(c2ccc(SC(F)F)cc2F)C1=O [I-395]
rate of dead pests (%) [1, 3]: 100%

CS(=O)(=O)N1CN(C(=O)c2c(F)cccc2F)C(=O)N(c2ccc(SC(F)F)cc2F)C1 [III-150]
rate of dead pests (%) [1, 3]: 100%

O=C(c1c(Cl)cccc1Cl)N1COCN(c2ccc([S+]([O-])C(F)F)cc2F)C1=O (centres unmarked) [I-396]
rate of dead pests (%) [2]: 100%

O=C(c1c(F)cccc1Cl)N1COCN(c2ccc(SC(F)(F)C(F)(F)C(F)(F)F)cc2Cl)C1=O [I-323]
rate of dead pests (%) [1, 3]: 100%

O=C(c1c(F)cccc1F)N1CN(Cc2ccccc2)CN(c2ccc(Cl)cc2)C1=O [III-4]
rate of dead pests (%) [1, 3]: 100%

O=C(c1c(F)cccc1Cl)N1COCN(c2ccc(SC(F)(F)F)c(Cl)c2Cl)C1=O [I-269]
rate of dead pests (%) [1, 3]: 100%

CC(c1ccccc1)N1CN(C(=O)c2c(F)cccc2F)C(=O)N(c2ccc(Cl)cc2)C1 (centres unmarked) [III-14]
rate of dead pests (%) [1, 3]: 100%

O=C(c1c(F)cccc1F)N1COCN(c2ccc(SC(F)(F)F)c(F)c2)C1=O [I-80]
rate of dead pests (%) [1, 3]: 100%

CN1CN(C(=O)c2c(F)cccc2F)C(=O)N(c2cc(Cl)c(F)c(Cl)c2F)C1 [III-51]
rate of dead pests (%) [1, 3]: 100%

O=C(c1c(F)cccc1F)N1CSCN(CC(F)(F)F)C1=O [II-64]
rate of dead pests (%) [2]: 95%

O=C(c1c(F)cccc1Cl)N1COCN(c2c(F)cc([S+]([O-])C(F)(F)F)c(F)c2F)C1=O (centres unmarked) [I-294]
rate of dead pests (%) [1, 3]: 100%

Cc1cc(SC(F)(F)C(F)(F)C(F)(F)F)c(Cl)cc1N1COCN(C(=O)c2c(F)cccc2Cl)C1=O [I-329]
rate of dead pests (%) [1, 3]: 100%

CC(C)N1CN(C(=O)c2c(F)cccc2F)C(=O)N(c2cc(Cl)c(F)c(Cl)c2F)C1 [III-52]
rate of dead pests (%) [1, 3]: 100%

O=C(c1c(F)cccc1F)N1CN(c2ccccc2)CN(c2ccc(Oc3ccc(C(F)(F)F)cc3Cl)cc2F)C1=O [III-30]
rate of dead pests (%) [1, 3]: 100%

O=C(c1c(F)cccc1F)N1COCN(c2cc(Cl)c([S+]([O-])C(F)(F)F)cc2F)C1=O (centres unmarked) [I-99]
rate of dead pests (%) [1, 3]: 100%

CN1CN(C(=O)c2c(F)cccc2F)C(=O)N(c2ccc(Cl)cc2)C1 [III-1, 1-(4-chlorophenyl)-3-(2,6-difluorobenzoyl)-5-methyltetrahydro-1,3,5-triazin-2(1H)-one]
pest or weed control at 100 ppm [1, 3]: 100%

O=C(c1c(F)cccc1F)N1COCN(c2ccc(Oc3ccc(C(F)(F)F)cc3Cl)cc2F)C1=O [I-3]
rate of dead pests (%) [1, 3]: 100%

CN1CN(CC(F)(F)F)C(=O)N(C(=O)c2c(F)cccc2F)C1 [III-144]
rate of dead pests (%) [2]: 100%

O=C(OCc1ccccc1)N1CN(C(=O)c2c(F)cccc2F)C(=O)N(c2ccc(Cl)cc2)C1 [III-7, 5-benzyloxycarbonyl-1-(4-chlorophenyl)-3-(2,6-difluorobenzoyl)tetrahydro-1,3,5-triazin-2 (1H)-one]
pest or weed control at 100 ppm [1, 3]: 100%

Cc1cc([S+]([O-])C(F)(F)F)c(C)cc1N1COCN(C(=O)c2c(F)cccc2F)C1=O (centres unmarked) [I-87]
rate of dead pests (%) [1, 3]: 100%

O=C(c1c(F)cccc1F)N1COCN(c2ccc(SC(F)(F)F)c(Cl)c2F)C1=O [I-95]
rate of dead pests (%) [1, 3]: 100%

O=C(c1c(F)cccc1F)N1COCN(c2ccc(SC(F)(F)F)c(Cl)c2Cl)C1=O [I-92]
rate of dead pests (%) [1, 3]: 100%

O=C(c1c(F)cccc1Cl)N1COCN(c2cc(Cl)c([S+]([O-])C(F)(F)F)cc2F)C1=O (centres unmarked) [I-276]
rate of dead pests (%) [1, 3]: 100%

CC(=O)N1CN(C(=O)c2c(F)cccc2F)C(=O)N(c2ccc([S+]([O-])C(F)(F)F)cc2F)C1 (centres unmarked) [III-165]
rate of dead pests (%) [1, 3]: 100%

O=C(c1c(F)cccc1F)N1CN(Cc2ccccc2)CN(c2ccc(Oc3ccc(C(F)(F)F)cc3Cl)cc2F)C1=O [III-29]
rate of dead pests (%) [1, 3]: 100%

O=C(c1c(F)cccc1Cl)N1COCN(c2c(F)cc([S+]([O-])C(F)(F)F)cc2Cl)C1=O (centres unmarked) [I-279]
rate of dead pests (%) [1, 3]: 100%

O=C(c1c(F)cccc1Cl)N1COCN(c2ccc([S+]([O-])C(F)(F)F)c(Cl)c2Cl)C1=O (centres unmarked) [I-270]
rate of dead pests (%) [1, 3]: 100%

O=C(c1c(F)cccc1F)N1CNCN(c2ccc(Cl)cc2)C1=O [III-6, 1-(4-chlorophenyl)-3-(2,6-difluorobenzoyl)tetrahydro-1,3,5-triazin-2(1H)-one]
pest or weed control at 100 ppm [1, 3]: 100%

Cc1cc(SC(F)(F)F)c(F)cc1N1COCN(C(=O)c2c(F)cccc2F)C1=O [I-125]
rate of dead pests (%) [1, 3]: 100%

O=C(c1c(F)cccc1Cl)N1COCN(c2c(F)cc(SC(F)(F)F)c(F)c2F)C1=O [I-293]
rate of dead pests (%) [1, 3]: 100%

O=C(c1c(F)cccc1Cl)N1COCN(c2cc(F)c(SC(F)(F)F)cc2F)C1=O [I-287]
rate of dead pests (%) [1, 3]: 100%
